ChEMBL document CHEMBL4610034, “Synthesis and biological evaluation of 4-arylcoumarins as potential anti-Alzheimer's disease agents” (Bioorg Med Chem Lett, 2020)
Active and inactive are the calls of the source. The calls are words filed in the database; no cut-off is given here.

How the values were obtained:
Acetylcholinesterase = Acetylcholinesterase (Electrophorus electricus, UniProt O42275); experiment: Inhibition of electric eel AChE using acetylthiocholine as substrate preincubated for 5 mins followed by substrate addition measured after 20 mins by Ellman's method
Cholinesterase = Cholinesterase (Equus caballus, UniProt P81908); experiment: Inhibition of equine serum BuChE using butyrylthiocholine as substrate preincubated for 5 mins followed by substrate addition measured after 20 mins by Ellman's method
[1] = target: T1, Amine oxidase [flavin-containing] B (Rattus norvegicus, UniProt P19643); experiment: Inhibition of MAO-B in Wistar rat liver using 4-trifluoromethyl benzylamine as substrate preincubated for 20 mins followed by substrate addition measured after 90 mins by microplate reader assay; format: tissue-based
T1 sequence (P19643 whole entry): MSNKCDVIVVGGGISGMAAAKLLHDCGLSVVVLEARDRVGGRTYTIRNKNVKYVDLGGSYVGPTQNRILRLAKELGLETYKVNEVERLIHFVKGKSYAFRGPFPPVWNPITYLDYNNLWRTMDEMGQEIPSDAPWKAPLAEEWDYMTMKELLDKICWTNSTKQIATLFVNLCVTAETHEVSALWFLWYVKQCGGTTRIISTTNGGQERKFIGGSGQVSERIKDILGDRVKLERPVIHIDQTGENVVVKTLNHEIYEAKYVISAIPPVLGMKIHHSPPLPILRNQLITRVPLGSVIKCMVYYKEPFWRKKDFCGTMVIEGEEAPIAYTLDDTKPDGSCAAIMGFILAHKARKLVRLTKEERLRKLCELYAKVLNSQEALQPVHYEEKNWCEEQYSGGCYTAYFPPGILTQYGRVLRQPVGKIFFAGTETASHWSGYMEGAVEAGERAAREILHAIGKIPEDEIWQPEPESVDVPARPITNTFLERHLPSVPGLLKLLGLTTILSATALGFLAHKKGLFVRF

[2] = Antioxidant activity assessed as reduction of colourless Fe3+-TPTZ complex to coloured Fe2+-TPTZ complex measured after 5 mins by FRAP assay; format: functional
[3] = target: T1, Amine oxidase [flavin-containing] B; experiment: Non-competitive inhibition of MAO-B extracted from Wistar rat liver at 5 to 500 uM using varying level of 4-trifluoromethyl benzylamine as substrate preincubated for 20 mins followed by substrate addition measured after 90 mins by microplate reader assay; conditions: 1.5 h
[4] = target: Acetylcholinesterase (Electrophorus electricus) (UniProt O42275); experiment: Mixed-type inhibition of electric eel AChE at 0.5 to 50 nM using varying level of acetylthiocholine as substrate preincubated for 5 mins followed by substrate addition measured after 20 mins by Ellman's method
Sequence of Acetylcholinesterase (Electrophorus electricus) (O42275 24-633 limits assumed): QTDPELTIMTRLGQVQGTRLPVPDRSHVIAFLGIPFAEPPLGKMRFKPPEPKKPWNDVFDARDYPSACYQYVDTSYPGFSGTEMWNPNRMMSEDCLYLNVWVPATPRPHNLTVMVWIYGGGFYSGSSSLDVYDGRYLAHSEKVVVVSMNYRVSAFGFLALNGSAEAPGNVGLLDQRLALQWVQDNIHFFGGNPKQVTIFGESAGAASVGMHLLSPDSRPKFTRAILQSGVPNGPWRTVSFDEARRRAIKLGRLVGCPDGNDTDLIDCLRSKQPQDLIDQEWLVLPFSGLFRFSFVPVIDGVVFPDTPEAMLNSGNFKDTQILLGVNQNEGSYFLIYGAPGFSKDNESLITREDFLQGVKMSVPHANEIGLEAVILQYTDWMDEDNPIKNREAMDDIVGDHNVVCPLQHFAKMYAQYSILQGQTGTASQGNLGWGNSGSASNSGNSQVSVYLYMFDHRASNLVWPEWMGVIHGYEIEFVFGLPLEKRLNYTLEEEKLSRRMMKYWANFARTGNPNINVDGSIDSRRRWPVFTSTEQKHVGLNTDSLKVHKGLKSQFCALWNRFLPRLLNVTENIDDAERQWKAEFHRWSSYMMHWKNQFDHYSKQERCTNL

Sequence of Cholinesterase (P81908 whole entry): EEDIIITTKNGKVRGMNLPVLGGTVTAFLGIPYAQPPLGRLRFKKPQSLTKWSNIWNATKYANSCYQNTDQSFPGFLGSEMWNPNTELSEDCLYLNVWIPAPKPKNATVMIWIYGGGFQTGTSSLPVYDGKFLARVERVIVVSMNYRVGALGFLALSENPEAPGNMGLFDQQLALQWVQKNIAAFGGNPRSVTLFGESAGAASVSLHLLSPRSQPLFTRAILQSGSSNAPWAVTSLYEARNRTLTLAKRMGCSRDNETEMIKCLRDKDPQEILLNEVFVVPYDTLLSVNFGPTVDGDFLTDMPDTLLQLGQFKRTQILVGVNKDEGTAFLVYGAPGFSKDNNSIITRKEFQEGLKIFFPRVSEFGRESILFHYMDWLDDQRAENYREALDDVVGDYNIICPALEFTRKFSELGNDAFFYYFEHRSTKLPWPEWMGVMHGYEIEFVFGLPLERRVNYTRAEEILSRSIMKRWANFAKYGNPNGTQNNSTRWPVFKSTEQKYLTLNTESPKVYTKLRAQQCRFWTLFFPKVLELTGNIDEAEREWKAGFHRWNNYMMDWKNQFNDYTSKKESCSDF
Sequence of Acetylcholinesterase (O42275 whole entry): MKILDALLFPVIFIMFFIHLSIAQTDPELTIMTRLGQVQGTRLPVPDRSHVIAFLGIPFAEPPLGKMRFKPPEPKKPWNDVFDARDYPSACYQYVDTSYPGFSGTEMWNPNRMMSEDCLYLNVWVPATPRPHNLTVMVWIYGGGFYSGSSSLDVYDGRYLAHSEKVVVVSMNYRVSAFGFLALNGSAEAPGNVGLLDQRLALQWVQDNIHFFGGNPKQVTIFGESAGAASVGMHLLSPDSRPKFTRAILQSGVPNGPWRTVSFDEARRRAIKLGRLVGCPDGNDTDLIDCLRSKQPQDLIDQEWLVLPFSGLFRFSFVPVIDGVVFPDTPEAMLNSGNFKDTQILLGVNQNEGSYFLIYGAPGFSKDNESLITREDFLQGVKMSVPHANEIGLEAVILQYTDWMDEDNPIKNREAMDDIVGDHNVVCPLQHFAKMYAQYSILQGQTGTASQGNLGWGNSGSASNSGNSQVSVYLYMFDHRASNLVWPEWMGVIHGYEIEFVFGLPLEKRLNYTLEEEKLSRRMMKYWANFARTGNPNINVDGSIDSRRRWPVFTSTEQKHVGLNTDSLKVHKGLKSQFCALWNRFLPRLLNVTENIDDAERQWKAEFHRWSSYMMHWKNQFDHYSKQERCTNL

COc1ccc(C2CC(=O)Oc3cc(O)ccc32)cc1 (stereo not drawn)
IC50 (Acetylcholinesterase): > 50 µM | IC50 (Cholinesterase): > 300 µM | IC50 [1]: > 300 µM | Activity [2]: 0.896 mmol/g

COc1ccc(C2CC(=O)Oc3c(O)cc(O)cc32)cc1OC (stereo not drawn)
IC50 (Acetylcholinesterase): > 50 µM | IC50 (Cholinesterase): > 300 µM | IC50 [1]: 26.6 µM | Activity [2]: 4.76 mmol/g

COc1ccc(C2CC(=O)Oc3cc(O)cc(O)c32)cc1 (stereo not drawn)
IC50 (Acetylcholinesterase): > 50 µM | IC50 (Cholinesterase): > 300 µM | IC50 [1]: 83.7 µM | Activity [2]: 1.06 mmol/g

COc1cc(C2CC(=O)Oc3c2ccc(O)c3O)ccc1O (stereo not drawn)
IC50 (Acetylcholinesterase): 10.9 µM | IC50 (Cholinesterase): 134 µM | IC50 [1]: 0.257 µM | inhibition (INH) [3]: Active | Activity [2]: 10.1 mmol/g

O=C1CC(c2ccc(O)c(O)c2)c2ccc(O)c(O)c2O1 (stereo not drawn)
IC50 (Acetylcholinesterase): 0.283 µM | IC50 (Cholinesterase): 72.5 µM | IC50 [1]: 0.43 µM | Activity [2]: 9.6 mmol/g

O=C1O[C@H]([C@@H](O)CO)C(O)=C1O
Activity [2]: 9.87 mmol/g

COc1ccc(C2CC(=O)Oc3cc(O)cc(O)c32)cc1OC (stereo not drawn)
IC50 (Acetylcholinesterase): > 50 µM | IC50 (Cholinesterase): > 300 µM | IC50 [1]: 141 µM | Activity [2]: 1.5 mmol/g

COc1ccc(-c2cc(=O)oc3cc(O)cc(O)c23)cc1OC
IC50 (Acetylcholinesterase): 7.92 µM | IC50 (Cholinesterase): > 300 µM | IC50 [1]: 104 µM | Activity [2]: 1.37 mmol/g

COc1ccc(C2CC(=O)Oc3c(O)cc(O)cc32)cc1 (stereo not drawn)
IC50 (Acetylcholinesterase): > 50 µM | IC50 (Cholinesterase): > 300 µM | IC50 [1]: 75.4 µM | Activity [2]: 2.85 mmol/g

COc1cc(-c2cc(=O)oc3c(O)c(O)ccc23)cc(OC)c1OC
IC50 (Acetylcholinesterase): 0.299 µM | IC50 (Cholinesterase): > 300 µM | IC50 [1]: > 300 µM | Activity [2]: 9.65 mmol/g

COc1cc(C2CC(=O)Oc3cc(O)cc(O)c32)ccc1O (stereo not drawn)
IC50 (Acetylcholinesterase): > 50 µM | IC50 (Cholinesterase): > 300 µM | IC50 [1]: 55.9 µM | Activity [2]: 9.01 mmol/g

O=c1cc(-c2ccc(O)c(O)c2)c2ccc(O)cc2o1
IC50 (Acetylcholinesterase): 8.86 µM | IC50 (Cholinesterase): > 300 µM | IC50 [1]: > 300 µM | Activity [2]: 9.71 mmol/g

COc1ccc(C2CC(=O)Oc3ccc(O)cc32)cc1OC (stereo not drawn)
IC50 (Acetylcholinesterase): > 50 µM | IC50 (Cholinesterase): > 300 µM | IC50 [1]: > 300 µM | Activity [2]: 0.922 mmol/g

O=c1cc(-c2ccc(O)c(O)c2)c2ccc(O)c(O)c2o1
IC50 (Acetylcholinesterase): 7.05 µM | IC50 (Cholinesterase): 188 µM | IC50 [1]: 189 µM | Activity [2]: 10.5 mmol/g

COc1ccc(-c2cc(=O)oc3c(O)c(O)ccc23)cc1OC
IC50 (Acetylcholinesterase): 0.052 µM | IC50 (Cholinesterase): > 300 µM | IC50 [1]: > 300 µM | Activity [2]: 9.89 mmol/g

O=c1cc(-c2ccc(O)cc2)c2ccc(O)c(O)c2o1
IC50 (Acetylcholinesterase): 9.45 µM | IC50 (Cholinesterase): > 300 µM | IC50 [1]: 293 µM | Activity [2]: 9.89 mmol/g

O=C1CC(c2ccc(O)cc2)c2c(O)cc(O)cc2O1 (stereo not drawn)
IC50 (Acetylcholinesterase): > 50 µM | IC50 (Cholinesterase): > 300 µM | IC50 [1]: 19.4 µM | Activity [2]: 2.26 mmol/g

O=c1cc(-c2cc(O)c(O)c(O)c2)c2ccc(O)c(O)c2o1
IC50 (Acetylcholinesterase): 0.025 µM | IC50 (Cholinesterase): 106 µM | inhibition [4]: Active | IC50 [1]: 1.99 µM | Activity [2]: 10.1 mmol/g

O=c1cc(-c2ccc(O)c(O)c2)c2cc(O)cc(O)c2o1
IC50 (Acetylcholinesterase): 7 µM | IC50 (Cholinesterase): 208 µM | IC50 [1]: 22.2 µM | Activity [2]: 10.5 mmol/g

COc1cc(C2CC(=O)Oc3cc(O)ccc32)ccc1O (stereo not drawn)
IC50 (Acetylcholinesterase): > 50 µM | IC50 (Cholinesterase): > 300 µM | IC50 [1]: 82.5 µM | Activity [2]: 9.38 mmol/g

COc1ccc(C2CC(=O)Oc3c2ccc(O)c3O)cc1 (stereo not drawn)
IC50 (Acetylcholinesterase): 21.6 µM | IC50 (Cholinesterase): 149 µM | IC50 [1]: 2.18 µM | Activity [2]: 9.17 mmol/g
